Several values for one entry are separate records, joined by “and”; a condition that tells them apart may be missing. Identical values can stand only once. Inconclusive results and toxic doses are left out.

The subject of this assay is B6C3F1 mice, ip Sarcoma M5076, median survival T/C. Kind of assay: NCI In Vivo Anticancer Drug Screen. Data for tumor model Sarcoma M5076 (intraperitoneal) in B6C3F1 mice. The note with it: endpoint: median survival time, schedule: Q04DX004 (ip), higher = longer survival. A digest of the protocol:
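Survival measured in treated (T) and vehicle control (C) mice with transplantable tumour; result given as T divided by C.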

Setting [1] is: dose: 7.5 mg/kg/injection, vehicle: saline.
[2] abbreviates: dose: 15.0 mg/kg/injection, vehicle: saline.
Setting [3] is: dose: 30.0 mg/kg/injection, vehicle: saline.
Setting [4] is: dose: 50.0 mg/kg/injection, vehicle: saline.
[5] abbreviates: dose: 1.5 mg/kg/injection, vehicle: saline with Tween-80.
Setting [6] is: dose: 3.0 mg/kg/injection, vehicle: saline with Tween-80.
The mark [7] stands for this setting: dose: 6.0 mg/kg/injection, vehicle: saline with Tween-80.
[8] abbreviates: dose: 12.0 mg/kg/injection, vehicle: saline with Tween-80.
The mark [9] stands for this setting: dose: 24.0 mg/kg/injection, vehicle: saline with Tween-80.
Where [10] appears, read: dose: 25.0 mg/kg/injection, vehicle: saline.
Where [11] appears, read: dose: 75.0 mg/kg/injection, vehicle: saline with Tween-80.
Setting [12] is: dose: 150.0 mg/kg/injection, vehicle: saline with Tween-80.
The mark [13] stands for this setting: dose: 50.0 mg/kg/injection, vehicle: saline with Tween-80.
Where [14] appears, read: dose: 100.0 mg/kg/injection, vehicle: saline with Tween-80.
The mark [15] stands for this setting: dose: 200.0 mg/kg/injection, vehicle: saline with Tween-80.
Where [16] appears, read: dose: 400.0 mg/kg/injection, vehicle: saline with Tween-80.

For `Cn1cc(NC(=O)c2cc(NC(=O)c3cc(NC=O)cn3C)cn2C)cc1C(=O)NCCC(=N)N`, the T/C by setting is: (dose: 12.5 mg/kg/injection, vehicle: water) 108 % of control; (dose: 25.0 mg/kg/injection, vehicle: water) 102 % of control; (dose: 50.0 mg/kg/injection, vehicle: water) 105 % of control; (dose: 100.0 mg/kg/injection, vehicle: water) 99 % of control.
In the case of `OCCOCCN1CCN(CCCN2c3ccccc3Sc3ccc(C(F)(F)F)cc32)CC1`, the T/C (dose: 0.75 mg/kg/injection, vehicle: saline) is 105 % of control; the T/C (dose: 1.5 mg/kg/injection, vehicle: saline) was 110 % of control; the T/C (dose: 3.0 mg/kg/injection, vehicle: saline) was 91 % of control; the T/C (dose: 6.0 mg/kg/injection, vehicle: saline) is 105 % of control; the T/C under setting [1] was 96 % of control and 100 % of control and 103 % of control; the T/C (dose: 12.0 mg/kg/injection, vehicle: saline) was 104 % of control. In addition, the T/C under setting [2] was 102 % of control and 107 % of control and 119 % of control; the T/C under setting [3] was 101 % of control and 107 % of control and 122 % of control; the T/C (dose: 60.0 mg/kg/injection, vehicle: saline) was 96 % of control (2×) and 101 % of control.
As for `CNC(=O)/C=C/C1=CN2C(=O)c3ccc(C)c(O)c3NC(OC)C2C1` (centres undefined), the T/C (dose: 12.5 micrograms/kg/injection, vehicle: saline) is 101 % of control and 108 % of control; the T/C (dose: 25.0 micrograms/kg/injection, vehicle: saline) was 104 % of control and 124 % of control; the T/C (dose: 50.0 micrograms/kg/injection, vehicle: saline) was 95 % of control and 108 % of control; the T/C (dose: 100.0 micrograms/kg/injection, vehicle: saline) was 98 % of control and 115 % of control; the T/C (dose: 200.0 micrograms/kg/injection, vehicle: saline) was 112 % of control.
As to `NCCCNCCCCNC(=O)C(O)NC(=O)CC(O)CCCCN=C(N)N` (centres undefined), the T/C runs as follows: under setting [4], 117 % of control; (dose: 100.0 mg/kg/injection, vehicle: saline) 115 % of control.
Consider `CN1CCc2c(c3ccccc3c3ccccc23)C1`, for which the T/C was 114 % of control (dose: 75.0 mg/kg/injection, vehicle: Klucel (hydroxypropylcellulose) (HPC)) and 122 % of control (dose: 150.0 mg/kg/injection, vehicle: Klucel (hydroxypropylcellulose) (HPC)).
With `CC(C)c1cc(C(=O)O)c(O)c(C(C)C)c1.CC(C)c1cc(C(=O)O)c(O)c(C(C)C)c1.[Cu]`, the T/C was 95 % of control and 104 % of control under setting [5]; 102 % of control and 104 % of control under setting [6]; 96 % of control and 102 % of control under setting [7]; 88 % of control and 102 % of control under setting [8]; 93 % of control (dose: 12.5 mg/kg/injection, vehicle: saline with Tween-80); 90 % of control under setting [9].
Take `O=NNc1ccccn1`: the T/C is, setting by setting: (dose: 3.13 mg/kg/injection, vehicle: saline) 109 % of control; (dose: 6.25 mg/kg/injection, vehicle: saline) 117 % of control; (dose: 18.0 mg/kg/injection, vehicle: saline) 172 % of control; under setting [10], 160 % of control; under setting [3], 156 % of control; under setting [4], 184 % of control.
`COc1ccc(NC(=O)/N=C2\CN(C(=O)c3c(F)cccc3F)C(=O)N2c2ccc(OC)cc2)cc1`: the T/C runs as follows: under setting [6], 95 % of control; under setting [7], 100 % of control; under setting [8], 102 % of control; under setting [9], 95 % of control; (dose: 48.0 mg/kg/injection, vehicle: saline with Tween-80) 95 % of control.
`CN1c2ccccc2C(=O)N2C(=O)CCC21C` (centres undefined): the T/C (dose: 18.75 mg/kg/injection, vehicle: saline with Tween-80) is 100 % of control; the T/C (dose: 37.5 mg/kg/injection, vehicle: saline with Tween-80) is 100 % of control; the T/C under setting [11] is 102 % of control; the T/C under setting [12] was 101 % of control.
As to `C/C(=N\NC(=O)c1ccccc1O)c1cccc(/C(C)=N/NC(=O)c2ccccc2O)n1`, the T/C is, setting by setting: under setting [10], 88 % of control; (dose: 25.0 mg/kg/injection, vehicle: suspension in saline) 108 % of control; under setting [4], 88 % of control; (dose: 100.0 mg/kg/injection, vehicle: suspension in saline) 116 % of control.
With `CN1[C@H]2C=CC(=O)[C@]1(Cl)[C@H]1C(=O)N(c3ccccc3)C(=O)[C@@H]21`, the T/C was 102 % of control and 107 % of control (dose: 25.0 mg/kg/injection, vehicle: saline with Tween-80); 101 % of control and 107 % of control under setting [13]; 95 % of control and 100 % of control under setting [14]; 94 % of control under setting [15]; 101 % of control under setting [16].
Turning to `Cc1c(O)c2ccccc2c2c1sc(NCCCN(CCO)CCO)[n+]2C`, the T/C runs as follows: under setting [1], 93 % of control; under setting [2], 98 % of control; under setting [3], 94 % of control.
For `Cc1ccc(-c2c([N+](=O)[O-])c3ccccn3c2[N+](=O)[O-])cc1`, the T/C is 97 % of control under setting [11]; 87 % of control under setting [12]; 87 % of control (dose: 300.0 mg/kg/injection, vehicle: saline with Tween-80); 101 % of control (dose: 600.0 mg/kg/injection, vehicle: saline with Tween-80).
Consider `COc1ccc(-c2c(N3CCOCC3)oc3cc(N4CCOCC4)c(O)cc23)cc1`, for which the T/C by setting is: under setting [13], 95 % of control; under setting [14], 104 % of control; under setting [15], 98 % of control; under setting [16], 95 % of control.
As for `N#CC1C(=O)NC(=O)C(C#N)C1c1ccncc1` (centres undefined), the T/C is 100 % of control (dose: 50.0 mg/kg/injection, vehicle: Klucel (hydroxypropylcellulose) (HPC)); 110 % of control (dose: 100.0 mg/kg/injection, vehicle: Klucel (hydroxypropylcellulose) (HPC)); 91 % of control (dose: 200.0 mg/kg/injection, vehicle: Klucel (hydroxypropylcellulose) (HPC)); 104 % of control (dose: 400.0 mg/kg/injection, vehicle: Klucel (hydroxypropylcellulose) (HPC)); 96 % of control (dose: 800.0 mg/kg/injection, vehicle: Klucel (hydroxypropylcellulose) (HPC)).
In the case of `COCCCNC1=C(C#N)C(=O)NC2(CCCC2)S1`, the T/C runs as follows: under setting [13], 97 % of control; under setting [14], 97 % of control; under setting [15], 97 % of control; under setting [16], 90 % of control.
On to `CO[C@@]12[C@H](COC(N)=O)C3=C(C(=O)C(C)=C(N)C3=O)N1C[C@@H]1N[C@@H]12`, for which the T/C is, setting by setting: (dose: 0.25 mg/kg/injection, vehicle: saline) 106 % of control; (dose: 0.5 mg/kg/injection, vehicle: saline) 120 % of control and 121 % of control.
In the case of `CC[C@@]1(O)C(=O)OCc2c1cc1n(c2=O)Cc2cc3ccccc3nc2-1`, the T/C by setting is: (dose: 0.37 mg/kg/injection, vehicle: saline with Tween-80) 107 % of control; (dose: 0.75 mg/kg/injection, vehicle: saline with Tween-80) 109 % of control; under setting [5], 118 % of control; under setting [6], 150 % of control; under setting [7], 153 % of control and 159 % of control.

For the origin of these results see PubChem BioAssay AID292 (DTP/NCI, 2004).
